This passage reports inhibition and IC50 results from ChEMBL document CHEMBL1136215, “Potent quinoxaline-based inhibitors of PDGF receptor tyrosine kinase activity. Part 1: SAR exploration and effective bioisosteric replacement of a phenyl substituent” (Bioorg Med Chem Lett, 2003).

Each structure is given as a SMILES string.

The first assay concerns the target T1, Platelet-derived growth factor receptor (Homo sapiens, UniProt P09619+P16234). The assay can be described thus: Inhibition of Platelet-derived growth factor receptor at 1 uM. The assay is classed as protein-complex assay.
Take `CCC1CCC(Oc2cnc3cc(OC)c(OC)cc3n2)CC1` (configuration not stated): the inhibition – broadly, the percentage by which the read-out fell short of the control – came to 16%.

Turning to `COc1cccc2nc(Nc3ccccc3)cnc12`, the inhibition worked out at 5%.

In the case of `COc1cc2ncc(SC3CCCCC3)nc2cc1OC`, the inhibition stood at 0%.

On to `COc1cc2ncc(Nc3ccc(Cl)cc3)nc2cc1OC`, for which the inhibition was 8%.

In turn, `COc1cc2ncc(N(C)c3ccccc3)nc2cc1OC` returned an inhibition of 0%.

`COc1cc2ncc(NCC3CCCCC3)nc2cc1OC` came in with an inhibition of 12%.

`COc1cccc2ncc(Nc3ccccc3)nc12` yielded an inhibition of 11%.

The next assay relates to HASMC. The assay can be described thus: Inhibition of mitogenesis in human aortic smooth muscle cells(HASMC). It is filed as functional, cell-based.
For `COc1cc2ncc(O[C@H]3CC4CCC3C4)nc2cc1OC` (mixture of isomers), the IC50 – broadly, the concentration needed to halve the response being measured – is 395 nM.

On to `COc1cc2ncc(N[C@H]3CC4CCC3C4)nc2cc1OC` (some centres not stated), for which it took 585 nM to reach half-maximal inhibition (IC50).

Regarding `COc1cc2ncc(N[C@@H]3CC4CCC3C4)nc2cc1OC` (stereo in doubt; 38), the IC50 is 61 nM.

In another assay the target is T1, Platelet-derived growth factor receptor. The assay can be described thus: Inhibition of Platelet-derived growth factor receptor. It is filed as protein-complex assay.
As for `COc1cc2ncc(NC3CC4CCC3C4)nc2cc1OC` (racemic), half-maximal inhibition (IC50) required 20 nM.

`COc1cc2cc(-c3ccsc3)cnc2cc1OC` returned a half-inhibitory concentration (IC50) of 461 nM.

Compound `COc1ccc2ncc(Nc3ccccc3)nc2c1` showed an IC50 of 42 nM.

In turn, `COc1cc2ncc(NCc3ccccc3)nc2cc1OC` registered an IC50 of 92 nM.

`COc1cc2ncc(OC3CCCCC3)nc2cc1OC` showed a 50% inhibitory concentration (IC50) of 65 nM.

`COc1cc2ncc(NC3CCCCC3)nc2cc1OC` came in with an IC50 of 124 nM.

Take `COc1cc2cc(NC3CCCCC3)cnc2cc1OC`: the half-maximal inhibitory concentration (IC50) was determined as 96 nM.

`COc1cc2ncc(Nc3ccccc3)nc2cc1OC` registered a 50% inhibitory concentration (IC50) of 6 nM.

Turning to `COc1cc2ncc(O[C@@H]3CC4CCC3C4)nc2cc1OC` (mixture of isomers), the IC50 was determined as 265 nM.

In the case of `COc1cc2ncc(Nc3cccc(Cl)c3)nc2cc1OC`, it took 4 nM to reach half-maximal inhibition (IC50).

As for `COc1cc2ncc(N[C@@H]3CC4CCC3C4)nc2cc1OC` (mixture of isomers), the concentration for half-maximal inhibition (IC50) was 879 nM.

Compound `COc1cc2ncc(OC3CCCC3)nc2cc1OC` registered a half-maximal inhibitory concentration (IC50) of 159 nM.

As to `COc1cc2ncc(SC3CCCC3)nc2cc1OC`, the IC50 was 226 nM.

As for `COc1cc2ncc(NC3CCCC(C)C3)nc2cc1OC` (configuration not stated), the IC50 is 41 nM.

With `COc1cc2ncc(NC3CCCC3)nc2cc1OC`, the midpoint of inhibition, the IC50, lay at 128 nM.

`COc1cc2ncc(O[C@H]3CC4CCC3C4)nc2cc1OC` (mixture of isomers) had an IC50 of 25 nM.

As for `COc1cc2cc(OC3CCCCC3)cnc2cc1OC`, half-maximal inhibition (IC50) was put at 601 nM.

Regarding `COc1cc2ncc(N[C@H]3CC4CCC3C4)nc2cc1OC` (some centres not stated), the half-inhibitory concentration (IC50) stood at 742 nM.

`COc1cc2ncc(N[C@@H]3CC4CCC3C4)nc2cc1OC` (stereo in doubt; 38) showed an IC50 of 15 nM.

On to `c1ccc(Nc2cnc3ccccc3n2)cc1`, for which the half-inhibitory concentration (IC50) worked out at 5100 nM.

Turning to `COc1ccc2nc(Nc3ccccc3)cnc2c1`, the IC50 amounted to 1600 nM.

On to `Cc1cc2ncc(Nc3ccccc3)nc2cc1C`, for which the IC50 was determined as 340 nM.
